According to patent US20240174596A1 (Northwestern University, priority 2021, published 2024):
Structures can show the parent of a compound that is named as a salt. Where two headings read alike, the source gives them in different places. Marks after values point to notes of the source that are not given here.

Legend:
[1] = target: T1, hOAT (Homo sapiens, UniProt P04181); test: Time-dependent inactivation of hOAT; type: biochemical; conditions: for kinact/KI: inactivation efficiency; for KI (inactivator concentration for half-maximal inactivation): inhibitor concentration for half-maximal inactivation; for KI (inactivator concentration for half-maximal inactivation) / kinact: mean and standard error
T1 construct: made in house; host or cells: E. coli BL21(DE3)
T1 sequence (P04181 26-439): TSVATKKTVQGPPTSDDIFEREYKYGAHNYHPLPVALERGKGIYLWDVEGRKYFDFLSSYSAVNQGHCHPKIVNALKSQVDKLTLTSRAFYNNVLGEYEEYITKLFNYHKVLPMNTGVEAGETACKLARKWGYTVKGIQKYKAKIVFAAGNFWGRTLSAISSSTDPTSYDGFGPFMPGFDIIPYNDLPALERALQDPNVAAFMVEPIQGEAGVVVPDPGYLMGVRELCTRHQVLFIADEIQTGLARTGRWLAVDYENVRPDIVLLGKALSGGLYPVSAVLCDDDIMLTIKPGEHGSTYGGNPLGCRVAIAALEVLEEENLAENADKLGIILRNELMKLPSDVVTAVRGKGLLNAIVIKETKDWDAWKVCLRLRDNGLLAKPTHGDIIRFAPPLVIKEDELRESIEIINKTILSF
Method: (§1) All reagents for enzyme purification and assays were purchased from Sigma-Aldrich (St. Louis, MO, USA). Human OAT (0.672 mg/mL) was purified from E. coli BL21 (DE3) cells following the procedure described above, and coenzyme human recombinant pyrroline 5-carboxylate reductase (PYCRI) were expressed, grown, and purified according to a literature procedure.^4 γ-Aminobutyric acid aminotransferase (GABA-AT, 0.4 mg/mL) was purified from pig brain following a procedure described previously^5, and coenzyme succinic semialdehyde dehydrogenase (SSDH) was purified from GABase (catalog No. G7509-25UN, Sigma-Aldrich), a commercially available mixture of SSDH and GABA-AT, using a known procedure.^6 Commercially available L-aspartate aminotransferase (Asp-AT) from the porcine heart (catalog No. G2751-2KU, Sigma-Aldrich) and the desired assay coenzyme malic dehydrogenase from porcine (catalog No. M2634-5KU, Sigma-Aldrich), and L-alanine aminotransferase (Ala-AT) from the porcine heart (catalog No. G8255-200UN, Sigma-Aldrich) and the desired assay coenzyme lactate dehydrogenase from porcine (catalog No. 427211-50KU, Sigma-Aldrich) were used directly without further purification. All the enzyme assays for the inactivation, partition ratio, and dialysis experiment were recorded on a Synergy H1 hybrid multimode microplate reader (Biotek, USA) with transparent 96-well plates.
Time-dependent inactivation against hOAT was performed using an optimized procedure published previously.^7 10 μL of hOAT (0.025 mg/mL) was preincubated with 10 μL of various concentrations of tested compounds in 100 mM potassium pyrophosphate buffer (pH 8.0, 5 mM α-ketoglutarate, and 5 mM β-mercaptoethanol) at 25° C. in a 96-well plate. At time intervals, 80 μL of assay solution containing PYCR^1 (0.5 μg), 1 mM NADH, and 25 mM L-ornithine in the abovementioned potassium pyrophosphate buffer were added to the incubation mixture and assayed for OAT activity at 37° C. for 30 min. The change in UV absorbance at 340 nm at 37° C. based on the conversion of NADH to NAD was monitored by a microplate reader. All assays were performed in duplicate, and the remaining OAT activity at each preincubation time at each inhibitor concentration was averaged. The natural logarithm of the percentage of the remaining OAT activity was plotted against the preincubation time at each inhibitor concentration to obtain the kobs (slope) value for each concentration. The kobs value is the rate constant describing the inactivation at each inhibitor concentration. kobs is replotted against the inhibitor concentration using nonlinear regression analysis using GraphPad Prism 8.0. K1 and kinact values were estimated from equation (1)
where kinact is the maximal rate of inactivation, K1 is the inhibitor concentration required for half-maximal inactivation, and [I] is the preincubation concentration of the tested compound.

[2] = target: T1, hOAT; conditions: data extracted from Reference 9; cited from earlier work
[3] = test system: aspartate aminotransferase (Asp-AT); conditions: up to 4 mM; cited from earlier work
[4] = target: T2, GABA-AT (Sus scrofa, UniProt P80147); test: Reversible inhibition of GABA-AT (coupled assay with SSDH); type: biochemical, pig; design: was purified from pig brain following a procedure described previously; from tissue; host or cells: pig brain; conditions: for Ki: Ki = IC50/(1 + [S]/Km), 9-point assay
Method: as §1
96-well plates were loaded with 80 μL of an assay mixture containing excess SSDH, 1 mM NADP^+, 11.1 mM GABA, and 10 μL of various concentrations of the tested compounds in 50 mM potassium pyrophosphate buffer (pH 8.5, 5 mM α-ketoglutarate, and 5 mM β-mercaptoethanol). […] The microplate was shaken at 25° C. for 1 min, and the remaining enzyme activity was determined by observing the change in absorbance at 340 nm at 25° C. based on the conversion of NADP^+ to NADPH. […] Subsequent Ki values were determined using equation (2) All assays were performed in duplicate.

[5] = test system: HCC mouse model; conditions: 0.1 and 1.0 mg/kg; PO; cited from earlier work
[6] = target: T1, hOAT; conditions: data extracted from Reference 9; cited from earlier work; remark: listed apart in the source
[7] = test system: alanine aminotransferase (Ala-AT); conditions: up to 4 mM; cited from earlier work
[8] = target: T2, GABA-AT; conditions: literature, cited from earlier work
[9] = target: T1, hOAT; conditions: literature; cited from earlier work
[10] = target: T1, hOAT; test: Fluoride ion release assay; type: biochemical; conditions: without α-KG; triplicate, mean with standard deviation
Method: The fluoride ion release assay was conducted using previous protocols.^10 The final concentration of enzyme in the sample was determined via BCA protein assay kit (Pierce, cat: 23225). A calibration curve of voltage (V, mV) was generated from varying concentrations of NaF (F, μM). For accurate detection of fluoride ion concentration, 10 μM of fluoride ion was added to each control and sample The number of fluoride ions released per active site was calculated by the ratio of the fluoride ion release concentration and enzyme concentration.

[11] = target: T1, hOAT; test: Partition ratio experiment (titration of hOAT); type: biochemical; conditions: in the presence of α-KG
Method: FIG. 9. Titration of hOAT with SS-1-148. The loss of enzyme activity was measured as a function of the ratio of […] to enzyme concentration. Linear regression was used on the linear portion of the curves to obtain the X-intercept, which was the turnover number (partition ratio=turnover number−1).
The partition ratio was calculated using previous protocols.^8-10

T2 sequence (P80147 29-500): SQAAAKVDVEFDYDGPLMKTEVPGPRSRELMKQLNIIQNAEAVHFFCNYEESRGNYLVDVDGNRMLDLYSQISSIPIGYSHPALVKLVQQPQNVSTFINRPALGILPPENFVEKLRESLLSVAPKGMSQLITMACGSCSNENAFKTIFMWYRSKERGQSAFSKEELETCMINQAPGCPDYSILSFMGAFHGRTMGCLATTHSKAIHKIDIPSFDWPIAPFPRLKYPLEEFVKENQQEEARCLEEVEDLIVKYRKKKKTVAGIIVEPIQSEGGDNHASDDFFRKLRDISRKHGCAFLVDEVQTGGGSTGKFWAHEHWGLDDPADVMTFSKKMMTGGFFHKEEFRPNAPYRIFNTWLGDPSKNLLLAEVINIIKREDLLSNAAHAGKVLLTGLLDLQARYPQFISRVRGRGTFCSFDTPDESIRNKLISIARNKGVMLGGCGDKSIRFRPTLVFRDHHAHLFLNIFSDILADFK

SMILES: N[C@H]1C[C@@H](C(=O)O)CC1=C(C(F)(F)F)C(F)(F)F [BCF3, (1S,3S)-3-Amino-4-(hexafluoropropan-2-ylidenyl)-cyclopentane-1-carboxylic Acid]
- kinact/KI [1]: 16.7 M⁻¹ s⁻¹
- KI (inactivator concentration for half-maximal inactivation) [1]: 90 ± 30 µM
- kinact [1]: 0.0015 s⁻¹
- Partition ratio [2]: 12^b
- inhibition on aspartate aminotransferase (Asp-AT) [3]: no inhibition
- Ki [4]: 5160 µM
- serum AFP levels [5]: remarkably decreased
- tumor growth [5]: inhibited tumor growth
- Fluoride ion release [6]: 79^b
- inhibition on alanine aminotransferase (Ala-AT) [7]: no inhibition

SMILES: N[C@H]1C=C(C(=O)O)CCC1(F)F [WZ-2-051, (S)-3-amino-4,4-difluorocyclohex-1-enecarboxylic acid]
- selectivity over GABA-AT ([8]; hOAT over GABA-AT): 13.3 fold
- type of inhibition on GABA-AT [8]: apparent irresponsible inhibition
- improvement in inactivation efficiency (kinact/K1 ratio) against hOAT compared to BCF3 [9]: 23 fold

SMILES: N[C@H]1C[C@@H](C(=O)O)CC1(F)F [Compound 4, (1R,4S)-4-Amino-3,3-difluorocyclopentanecarboxylic acid hydrochloric acid salt, reference compound]
- Fluoride ion release [10]: 3395± 31

SMILES: N[C@H]1CC(C(=O)O)=CC1(F)F [Compound 5, (S)-4-Amino-3,3-difluorocyclopent-1-enecarboxylic acid]
- kinact/KI [1]: 0.233 M⁻¹ s⁻¹
- KI (inactivator concentration for half-maximal inactivation) [1]: 2130 ± 900 µM
- kinact [1]: 0.0005 s⁻¹
- Partition ratio [11]: 817
- inhibitory activity against GABA-AT weaker than cyclopentane-based 4 [4]: about 10 times
- Ki [4]: 1340 µM
- Fluoride ion release [10]: 754 ± 57
